Where two headings read alike, the source gives them in different places.
Molecular target: recombinant human SAE enzyme (Homo sapiens (Human), UniProt Q9UBT2)
Assay: SAE HTRF enzyme assay
Format: biochemical
Conditions: for inhibition at 0.111 µM: read-out: Percent Inhibition
Summary of the method: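 Enzyme reaction: 50 mM HEPES pH 7.5, 5 mM MgCl2, 250 μM GSH, 0.05% BSA, 0.5 μM ATP, 0.01 μM Ubc9-GST, 0.125 μM Sumo-Flag, 0.11 nM SAE; 105 min, 24° C. Stop/detect, 2 h, then HTRF. % inh or IC50.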

[1] = SAE inhibition at compound concentration 0.111 μM
[2] = SAE inhibition, class symbols, legend in nM

Sequence of recombinant human SAE enzyme (Q9UBT2 whole entry): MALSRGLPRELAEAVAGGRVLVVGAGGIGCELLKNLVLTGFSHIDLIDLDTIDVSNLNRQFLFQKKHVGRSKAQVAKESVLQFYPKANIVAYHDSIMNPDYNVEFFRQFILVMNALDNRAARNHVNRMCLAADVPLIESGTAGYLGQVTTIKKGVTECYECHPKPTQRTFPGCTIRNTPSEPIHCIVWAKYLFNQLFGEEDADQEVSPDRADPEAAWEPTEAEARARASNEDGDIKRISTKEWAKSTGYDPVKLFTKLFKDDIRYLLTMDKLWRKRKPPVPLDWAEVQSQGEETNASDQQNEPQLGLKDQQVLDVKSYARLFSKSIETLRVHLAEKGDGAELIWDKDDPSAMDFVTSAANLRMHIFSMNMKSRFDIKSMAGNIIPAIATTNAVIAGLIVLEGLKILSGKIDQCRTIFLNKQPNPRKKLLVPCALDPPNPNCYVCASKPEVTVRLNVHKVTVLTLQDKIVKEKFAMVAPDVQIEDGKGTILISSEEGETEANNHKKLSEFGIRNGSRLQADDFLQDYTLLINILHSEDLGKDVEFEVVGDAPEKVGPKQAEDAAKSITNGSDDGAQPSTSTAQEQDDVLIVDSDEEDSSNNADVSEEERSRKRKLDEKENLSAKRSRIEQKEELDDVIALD
Sequence of recombinant human SAE enzyme (Q9UBE0 whole entry partner): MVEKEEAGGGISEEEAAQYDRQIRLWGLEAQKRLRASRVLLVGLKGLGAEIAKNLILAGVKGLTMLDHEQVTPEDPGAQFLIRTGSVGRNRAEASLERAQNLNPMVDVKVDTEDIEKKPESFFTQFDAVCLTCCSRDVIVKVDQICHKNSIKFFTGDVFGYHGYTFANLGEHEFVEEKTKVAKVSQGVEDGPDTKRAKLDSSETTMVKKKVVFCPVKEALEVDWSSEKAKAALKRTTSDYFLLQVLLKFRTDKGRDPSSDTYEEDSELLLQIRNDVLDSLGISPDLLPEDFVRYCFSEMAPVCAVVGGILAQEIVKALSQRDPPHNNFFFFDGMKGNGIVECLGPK

| SMILES | IC50 [2] [nM] | IC50 (class symbols A/B/C) [nM] | inhibition at 0.111 µM (Concentration 0.111 μM) [%] | other results |
| --- | --- | --- | --- | --- |
| NS(=O)(=O)OC[C@H]1C[C@@H](Nc2ncncc2C(=O)c2cc([C@@H]3NCCc4ccccc43)cs2)C[C@@H]1O (single isomer, unassigned) [I-283a, [(1R,2S,4R)-2-hydroxy-4-{[5-({4-[(1R)-1,2,3,4-tetrahydroisoquinolin-1-yl]-2-thienyl}carbonyl)pyrimidin-4-yl]amino}cyclopentyl]methyl sulfamate or [(1R,2S,4R)-2-hydroxy-4-{[5-({4-[(1S)-1,2,3,4-tetrahydroisoquinolin-1-yl]-2-thienyl}carbonyl)pyrimidin-4-yl]amino}cyclopentyl]methyl sulfamate] | < 10 |  |  | Percent Inhibition [1]: 99% |
| NS(=O)(=O)OC[C@H]1C[C@@H](Nc2ncncc2C(=O)c2cc(C(O)c3cccc(Cl)n3)cs2)C[C@@H]1O (single isomer, unassigned) [I-29a, [(1R,2S,4R)-4-{[5-({4-[(S)-(6-chloropyridin-2-yl)(hydroxy)methyl]-2-thienyl}carbonyl)pyrimidin-4-yl]amino}-2-hydroxycyclopentyl]methyl sulfamate or [(1R,2S,4R)-4-{[5-({4-[(R)-(6-chloropyridin-2-yl)(hydroxy)methyl]-2-thienyl}carbonyl)pyrimidin-4-yl]amino}-2-hydroxycyclopentyl]methyl sulfamate] |  | < 10 |  | Percent Inhibition (Concentration 0.111 μM): 97 |
| NS(=O)(=O)OC[C@H]1C[C@@H](Nc2ncncc2C(=O)c2cc(CN3CCc4ccccc4C3)cs2)C[C@@H]1O [I-167, {(1R,2S,4R)-4-[(5-{[4-(3,4-dihydroisoquinolin-2(1H)-ylmethyl)-2-thienyl]carbonyl}pyrimidin-4-yl)amino]-2-hydroxycyclopentyl}methyl sulfamate] |  | 10 to 100 | 89 |  |
| CN1CCc2ccc(Cl)cc2[C@@H]1c1csc(C(=O)c2cncnc2N[C@@H]2C[C@H](COS(N)(=O)=O)[C@@H](O)C2)c1 (single isomer, unassigned) [I-307a, [(1R,2S,4R)-4-{[5-({4-[(1R)-7-chloro-2-methyl-1,2,3,4-tetrahydroisoquinolin-1-yl]-2-thienyl}carbonyl)pyrimidin-4-yl]amino}-2-hydroxycyclopentyl]methyl sulfamate or [(1R,2S,4R)-4-{[5-({4-[(1S)-7-chloro-2-methyl-1,2,3,4-tetrahydroisoquinolin-1-yl]-2-thienyl}carbonyl)pyrimidin-4-yl]amino}-2-hydroxycyclopentyl]methyl sulfamate] | 100 to 1000 |  |  | Percent Inhibition [1]: 45% |
| N#Cc1sc(C(=O)c2cncnc2N[C@@H]2C[C@H](COS(N)(=O)=O)[C@@H](O)C2)cc1[C@@H]1OCCc2ccccc21 (mixture of isomers) [I-324, [(1R,2S,4R)-4-{[5-({5-cyano-4-[(1R)-3,4-dihydro-1H-isochromen-1-yl]-2-thienyl}carbonyl)pyrimidin-4-yl]amino}-2-hydroxycyclopentyl]methyl sulfamate and [(1R,2S,4R)-4-{[5-({5-cyano-4-[(1S)-3,4-dihydro-1H-isochromen-1-yl]-2-thienyl}carbonyl)pyrimidin-4-yl]amino}-2-hydroxycyclopentyl]methyl sulfamate] | 10 to 100 |  |  | Percent Inhibition [1]: 91% |
| NS(=O)(=O)OC[C@H]1C[C@@H](Nc2ncncc2C(=O)c2cc(Cn3ccc4ccncc43)cs2)C[C@@H]1O [I-186, {(1R,2S,4R)-2-hydroxy-4-[(5-{[4-(1H-pyrrolo[2,3-c]pyridin-1-ylmethyl)-2-thienyl]carbonyl}pyrimidin-4-yl)amino]cyclopentyl}methyl sulfamate] |  | 10 to 100 | 83 |  |
| COc1ccccc1[C@@H](O)c1cc(C(=O)c2cncnc2N[C@@H]2C[C@H](COS(N)(=O)=O)[C@@H](O)C2)sc1Cl (mixture of isomers) [I-85, [(1R,2S,4R)-4-{[5-({5-chloro-4-[(R)-hydroxy(2-methoxyphenyl)methyl]-2-thienyl}carbonyl)pyrimidin-4-yl]amino}-2-hydroxycyclopentyl]methyl sulfamate and [(1R,2S,4R)-4-{[5-({5-chloro-4-[(S)-hydroxy(2-methoxyphenyl)methyl]-2-thienyl}carbonyl)pyrimidin-4-yl]amino}-2-hydroxycyclopentyl]methyl sulfamate] |  | < 10 |  | Percent Inhibition (Concentration 0.111 μM): 97 |
| NS(=O)(=O)OC[C@H]1C[C@@H](Nc2ncncc2C(=O)c2cc(Cc3cccc(I)c3)cs2)C[C@@H]1O [I-62, {(1R,2S,4R)-2-hydroxy-4-[(5-{[4-(3-iodobenzyl)-2-thienyl]carbonyl}pyrimidin-4-yl)amino]cyclopentyl}methyl sulfamate] |  |  | 98 |  |
| Cc1sc(C(=O)c2cncnc2N[C@@H]2C[C@H](COS(N)(=O)=O)[C@@H](O)[C@H]2O)nc1Cc1cccc(Br)c1 [I-354, {(1R,2R,3S,4R)-4-[(5-{[4-(3-bromobenzyl)-5-methyl-1,3-thiazol-2-yl]carbonyl}pyrimidin-4-yl)amino]-2,3-dihydroxycyclopentyl}methyl sulfamate] | < 10 |  |  | inhibition at 0.111 µM [1]: 100% |
| NS(=O)(=O)OC[C@H]1C[C@@H](Nc2ncncc2C(=O)c2cc(Cc3cccc(Cl)c3)c(Br)s2)C[C@@H]1O [I-118, {(1R,2S,4R)-4-[(5-{[5-bromo-4-(3-chlorobenzyl)-2-thienyl]carbonyl}pyrimidin-4-yl)amino]-2-hydroxycyclopentyl}methyl sulfamate] |  | < 10 | 97 |  |
| Cc1ccc2c(n1)[C@H](c1cc(C(=O)c3cncnc3N[C@@H]3C[C@H](COS(N)(=O)=O)[C@@H](O)C3)sc1C)OCC2 (mixture of isomers) [I-291, [(1R,2S,4R)-2-hydroxy-4-{[5-({5-methyl-4-[(8S)-2-methyl-5,8-dihydro-6H-pyrano[3,4-b]pyridin-8-yl]-2-thienyl}carbonyl)pyrimidin-4-yl]amino}cyclopentyl]methyl sulfamate and [(1R,2S,4R)-2-hydroxy-4-{[5-({5-methyl-4-[(8R)-2-methyl-5,8-dihydro-6H-pyrano[3,4-b]pyridin-8-yl]-2-thienyl}carbonyl)pyrimidin-4-yl]amino}cyclopentyl]methyl sulfamate] | < 10 |  |  | Percent Inhibition [1]: 99% |
| C[C@](O)(c1csc(C(=O)c2cncnc2N[C@@H]2C[C@H](COS(N)(=O)=O)[C@@H](O)C2)c1)c1cccc(Br)n1 (mixture of isomers) [I-54, [(1R,2S,4R)-4-{[5-({4-[(1S)-1-(6-bromopyridin-2-yl)-1-hydroxyethyl]-2-thienyl}carbonyl)pyrimidin-4-yl]amino}-2-hydroxycyclopentyl]methyl sulfamate and [(1R,2S,4R)-4-{[5-({4-[(1R)-1-(6-bromopyridin-2-yl)-1-hydroxyethyl]-2-thienyl}carbonyl)pyrimidin-4-yl]amino}-2-hydroxycyclopentyl]methyl sulfamate] |  | < 10 |  | Percent Inhibition (Concentration 0.111 μM): 99 |
| COCc1coc(C(=O)c2cncnc2N[C@@H]2C[C@H](COS(N)(=O)=O)[C@@H](O)C2)c1 [I-223, [(1R,2S,4R)-2-Hydroxy-4-({5-[4-(methoxymethyl)-2-furoyl]pyrimidin-4-yl}amino)cyclopentyl]methyl sulfamate] |  | 100 to 1000 | 28 |  |
| N[C@@H](c1cccc(Cl)c1)c1cc(C(=O)c2cncnc2N[C@@H]2C[C@H](COS(N)(=O)=O)[C@@H](O)[C@H]2O)sc1Cl (single isomer, unassigned) [I-14b, [(1R,2R,3S,4R)-4-{[5-({4-[(S)-Amino(3-chlorophenyl)methyl]-5-chloro-2-thienyl)carbonyl)pyrimidin-4-yl]amino}-2,3-dihydroxycyclopentyl]methyl sulfamate or [(1R,2R,3S,4R)-4-{[5-({4-[(R)-Amino(3-chlorophenyl)methyl]-5-chloro-2-thienyl}carbonyl)pyrimidin-4-yl]amino}-2,3-dihydroxycyclopentyl]methyl sulfamate] |  | < 10 |  | Percent Inhibition (Concentration 0.111 μM): 95 |
| Cc1sc(C(=O)c2cncnc2N[C@@H]2C[C@H](COS(N)(=O)=O)[C@@H](O)C2)cc1S(=O)(=O)c1cccc(Cl)c1 [I-181, [(1R,2S,4R)-4-{[5-({4-[(3-chlorophenyl)sulfonyl]-5-methyl-2-thienyl}carbonyl)pyrimidin-4-yl]amino}-2-hydroxycyclopentyl]methyl sulfamate] |  | 10 to 100 | 82 |  |
| NS(=O)(=O)OC[C@H]1C[C@@H](Nc2ncncc2C(=O)c2cc([C@@H]3OCCc4cc(F)c(F)cc43)cs2)C[C@@H]1O (single isomer, unassigned) [I-273, [(1R,2S,4R)-4-{[5-({4-[(1R)-6,7-Difluoro-3,4-dihydro-1H-isochromen-1-yl]-2-thienyl}carbonyl)pyrimidin-4-yl]amino}-2-hydroxycyclopentyl]methyl sulfamate or [(1R,2S,4R)-4-{[5-({4-[(1S)-6,7-Difluoro-3,4-dihydro-1H-isochromen-1-yl]-2-thienyl}carbonyl)pyrimidin-4-yl]amino}-2-hydroxycyclopentyl]methyl sulfamate] |  | < 10 |  | Percent Inhibition (Concentration 0.111 μM): 99 |
| Cc1sc(C(=O)c2cncnc2N[C@@H]2C[C@H](COS(N)(=O)=O)[C@@H](O)C2)cc1[C@@H]1OCCc2cnc(Cl)cc21 (mixture of isomers) [I-316, [(1R,2S,4R)-4-{[5-({4-[(1R)-7-chloro-3,4-dihydro-1H-pyrano[4,3-c]pyridin-1-yl]-5-methyl-2-thienyl}carbonyl)pyrimidin-4-yl]amino}-2-hydroxycyclopentyl]methyl sulfamate and [(1R,2S,4R)-4-{[5-({4-[(1S)-7-chloro-3,4-dihydro-1H-pyrano[4,3-c]pyridin-1-yl]-5-methyl-2-thienyl}carbonyl)pyrimidin-4-yl]amino}-2-hydroxycyclopentyl]methyl sulfamate] | < 10 |  |  | Percent Inhibition [1]: 94% |

— patent US10780090B2, “Heteroaryl compounds useful as inhibitors of SUMO activating enzyme” (Millennium Pharmaceuticals, Inc., priority 2014, dated 2020)
